Data set [1] addresses T1, cloned rat 5-HT2 receptor (Rattus norvegicus, UniProt P14842).
T1 construct: expressed in transfected cells; host or cells: NIH 3T3 fibroblasts, line 'GF-6'
The experiment in a line: Affinity for 5-HT2 receptors on transfected fibroblast cell membranes ([125I]LSD competition binding, NIH 3T3 GF-6 cells). The note with it: NIH 3T3 GF-6 cell membranes, 37° C., 60 minutes, pH 7.6. An excerpt: Affinity for 5-HT2 receptor on transfected fibroblast cell membranes (partial agonist [^125 I]lysergic acid diethylamide; Elliott, M. J., Kent, A., J. Neurochem. 53: 191-196, 1989.; Peroutka, S. J., Snyder, S. H. , Molec. Pharmacol. 16: 687-699, 1979; Kadan, J. M., Krohn, A. M., Evans, M. J., Ualtz, R. L., Hartig, P. R.; J. Neurochem. 43: 601-606, 1984) is used to determine the potency of test compounds to compete with [^125 I]LSD binding to a NIH 3T3 cell line containing the cloned rat 5-HT2 receptor designated "GF-6" by its originators.[Julius, D., Huang, K. N., Livelli, T. J., Axel, R., and Jessell, T. M., Proc. Natl. Acad. Sci. USA 87:928-932, 1990]
Confluent GF6 cell monolayers are dissociated in Versene and centrifuged at 1000 rpm for 5 minutes. The resulting pellet is homogenized in 10 volumes 0.32M sucrose using a Dounce glass homogenizer, 10 strokes. The suspension is centrifuged at 44,000×g for 15 minutes, and the pellet suspended in […] Hepes-KOH, pH 7.4, using a Polytron. The membranes are then stored at -80° C.
The assay tubes, in triplicate, receive 20 μl of 5 nM [^125 I]LSD, 20 μl of test compound (10^-9 M to 10^-5 M or 10 μM ketanserin for nonspecific binding), 40 μl of membrane suspension (1-5 μg protein/assay tube) in a final volume of 0.1 ml of 50 mM Tris- HCl, pH 7.6. Incubations are carried out at 37° C. for 60 minutes and terminated by addition of 2 ml ice-cold assay buffer end filtered through GF/B glass fiber filters (presoaked in 0.1% polyethyleneimine). Filters are washed twice with 5 ml of cold buffer and transferred to polystyrene tubes for radioactivity determination. Protein concentration was measured using the Bradford dye binding method.
Inhibition of [^125 I]LSD binding by a test compound is indicative of affinity for the 5HT2 receptor site. The molar concentration of a Compound which causes 50% inhibition of the binding of ligand is the IC50. The IC50 value is converted to the Ki value by the method of Cheng and Prusoff.[Cheng, Y. -C and Prusoff, Biochem. Pharmacol. 22:3099-3108, 1973].

Data set [2] deals with migraine headaches. As to conditions: in vivo; cited from earlier work.
Data set [3] concerns migraine. As to conditions: in vivo; cited from earlier work.
Data set [4] deals with 5-HT1C receptor. The note with it: albeit nonselective; cited from earlier work.

Here are results for 7 molecules from US5407954A, “Arylalkoxyphenoxy-imidazoline compounds” (Merrell Dow Pharmaceuticals Inc., priority 1994, dated 1995).

T1 sequence (P14842 whole entry): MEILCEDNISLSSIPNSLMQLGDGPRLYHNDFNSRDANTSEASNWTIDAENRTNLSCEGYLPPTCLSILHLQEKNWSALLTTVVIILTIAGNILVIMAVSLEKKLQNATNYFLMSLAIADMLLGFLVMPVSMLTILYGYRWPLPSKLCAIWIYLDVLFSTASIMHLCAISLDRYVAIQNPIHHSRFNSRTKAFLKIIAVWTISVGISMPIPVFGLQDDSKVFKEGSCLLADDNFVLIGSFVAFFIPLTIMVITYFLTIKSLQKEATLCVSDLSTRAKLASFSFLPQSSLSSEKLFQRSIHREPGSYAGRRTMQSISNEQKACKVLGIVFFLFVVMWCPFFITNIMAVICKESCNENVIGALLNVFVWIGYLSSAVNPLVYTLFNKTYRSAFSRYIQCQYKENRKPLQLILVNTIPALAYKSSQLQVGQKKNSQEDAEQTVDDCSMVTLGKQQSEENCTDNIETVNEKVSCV

The term IC50 denotes the point on the concentration scale where inhibition reaches its midpoint. In turn, `COc1ccc(CC(Oc2ccccc2OCc2ccccc2)C2=NCCN2)cc1` (stereo not drawn) [100,499, 2-[1-(2-benzyloxyphenoxy)-2-(4-methoxyphenyl)]ethylimidazoline] registered an IC50 in data set [1] of 3.5 nM.
In data set [1], `c1ccc(COc2ccccc2OC(Cc2ccccc2)C2=NCCN2)cc1` (stereo not drawn) [101,600, 2-[1-(2-benzyloxyphenoxy)-2-phenyl]ethylimidazoline] came in with an IC50 of 2.5 nM.
In turn, `c1ccc(CCOc2ccccc2OC(Cc2ccccc2)C2=NCCN2)cc1` (stereo not drawn) [101,623, 2-(1-[2-(2-phenylethoxy)phenoxy]-2-phenyl)ethylimidazoline] had a concentration for half-maximal inhibition (IC50) in data set [1] of 14 nM.
In data set [1], `c1ccc(CCCC(Oc2ccccc2OCc2ccccc2)C2=NCCN2)cc1` (stereo not drawn) [102,588, 2-[1-(2-benzyloxyphenoxy)-4-phenyl]butylimidazoline] showed an IC50 of 167 nM.
Take `Clc1cccc(N2CCNCC2)c1` [m-chlorophenylpiperazine]: in data set [2], the inducing migraine headaches entry is listed as “capable of inducing migraine headaches”.
With `CC[C@@H](CO)NC(=O)[C@@H]1C=C2c3cccc4c3c(cn4C)C[C@H]2N(C)C1` [methysergide], in data set [3], the migraine prophylactic effectiveness result is reported as “well established as effective migraine prophylactic agents”. Further, the “5-HT1C receptor antagonist activities” value in data set [4] is on record as “potent 5-HT1C receptor antagonist activities (albeit nonselective)”.
Turning to `CN1CCC(=C2c3ccccc3CCc3sccc32)CC1` [pizotifen], the migraine prophylactic effectiveness entry in data set [3] is on record as “well established as effective migraine prophylactic agents”. In addition, in data set [4], the “5-HT1C receptor antagonist activities” value is on record as “potent 5-HT1C receptor antagonist activities (albeit nonselective)”.
